# Assay results taken from patent US9011880B2, “Compounds and methods for treating cancer” (IGF Oncology, LLC, priority 2003, dated 2015).
# Where two headings read alike, the source gives them in different places.
# Legend:
# [1] = tested on: MDA-MB-231 breast cancer cells; conditions: cells incubated with insulin; cited from earlier work
# [2] = tested on: mouse fibrosarcoma cell line FSAII; test: In vitro growth inhibition of FSAII cells (cell-counting kit-8); assay type: cell-based; conditions: minimal medium, 2 nM to 2 μM, 72 hours
# Method: In vitro growth inhibition. […] The cells were grown in a 5% CO2 atmosphere at 37° C. in 100 cm^2 plastic tissue culture dishes (20 ml medium). Cells were passed every 4-6 days and seeded at 2×10^6 cells per plate. Cells were harvested by washing once in Hank's balanced salt solution, and then digesting with 3 ml of trypsin-EDTA for 3-10 minutes until cells had detached. Trypsinization was stopped by adding rich medium. The harvested cells were washed by centrifugation and resuspended in rich medium, and then plated in a 96-well plate at 12,000 cells per well in rich medium. Plates were incubated in the rich medium 16 hours and then transferred to minimal medium (100 μl/well), which lacked serum and thus lacked insulin and IGF and other growth factors. Minimal medium was RPMI supplemented with 10 μg/ml transferrin (iron-loaded) and 200 μg/ml bovine serum albumin. […] Each condition was tested in triplicate. After 72 hours incubation at 37° C., cell proliferation was assayed by the cell-counting kit-8, based on tetrazolium dye reduction, similar to the MTT assay (Dojindo Molecular Technologies, Gaithersburg, Md.).
# FSAII tumors = test: FSAII tumor growth in vivo in mice; design: species or system mouse; conditions: intraperitoneally, days 0, 2 and 5
# Method: FSAII testing. Six-week old female mice were injected subcutaneously in the thigh with 200,000 FSAII cells each in serum-free medium. Tumors were allowed to grow until they reached an average volume of 100 mm^3 (calculated as length×breadth^2). At that time, treatment was initiated. […] A fifth group of mice was untreated controls. Each group contained five mice. Mice were treated on days 0, 2, and 5. Tumor growth was measured every second day.
# LNCAP tumors = assay type: in vivo, mouse; conditions: days 0, 4, 8, 18, 22 and 26
# Method: LNCAP testing. Eight-week old athymic male mice (nu/nu) were injected subcutaneously in the thigh with 1 million LNCAP cells in serum-free medium. Tumors were allowed to grow until they reached an average size of 100 mm^3. […] A fifth group of mice was untreated controls.
# LNCAP cells [3] = test: In vitro proliferation assay, LNCaP (Example 8); assay type: cell-based, human
# Method: LNCaP, MCF7 and MCF7-L cell lines were plated, respectively, in a 96-well plate at 5,000 cells per well in RPMI+glutamine+10% FCS medium in 100 μl. After 24 hours, 100 μl fresh medium was added containing no drug (control), IGF-MTX or MTX at the indicated concentration.
# MCF7 tumors = test: MCF7 xenograft tumor growth in nu/nu mice; assay type: in vivo, mouse; conditions: 40 nmol/g intravenous, days 0, 4 and 8; 12 days of observation
# Method: (§1) MCF7 cells (human breast adenocarcinoma cell line) were grown in Eagle's minimal essential medium supplemented with 0.1 mg/ml insulin and 10% FCS. The estrogen-dependent MCF7-L cell line was a gift from Deepali Sachdev of the University of Minnesota. MCF7-L cells were grown in modified IMEM medium (Invitrogen, Carlsbad, Calif., USA) supplemented with 0.1 mg/ml insulin. LNCaP cells (metastatic human prostatic adenocarcinoma) were grown in RPMI supplemented with glutamine and 10% FCS (Invitrogen, Carlsbad, Calif., USA). Cells were grown at 37° C. in a 5% CO2 humidified atmosphere. In each case, cells were grown to approximately two-thirds confluence, harvested by trypsinization, washed with rich medium and then washed twice with PBS and resuspended in phosphate buffered saline in BD matrigel matrix (Becton Dickinson, Franklin Lakes, N.J., USA). Cells were injected intradermally in mice on the back. An estrogen pellet (0.5 mg estradiol, 60-day release, Innovative Research of America, Sarasota, Fla., USA) was implanted subcutaneously between the shoulder blades two days before implanting MCF7 and MCF7-L cells. MCF7 and MCF7-L cells were implanted in 8-week-old female nu/nu mice. LNCaP cells were implanted in 8-week-old male nu/nu mice. […] MTX was dissolved in PBS. Untreated vehicle controls received 2 mM HCl, 1% glycerol. Drug was administered intravenously by tail-vein injection in a volume of 12.5 μl per gram mouse weight. All studies were approved by the University of Minnesota Animal Care and Use Committee and conformed to relevant ethical guidelines.
# Three in vivo studies were performed to assess the targeting of MTX with long-R3-IGF-1. In the initial preliminary study, breast cancer MCF7 cells were implanted intradermally in the backs of nude mice.
# MCF7-L tumors = test: MCF7-L xenograft tumor growth in nu/nu mice; assay type: in vivo, mouse; conditions: day 22; IGF-MTX 10 nmol of MTX/g or free MTX 40 nmol/g, tail vein, days 0 and 5
# Method: as §1, with “Drug was administered intravenously by tail-vein injection in a volume of 12.5 μl per gram mouse weight. All studies were approved by the University of Minnesota Animal Care and Use Committee and conformed to relevant ethical guidelines.” left out
# [4] = IGF-MTX- and MTX-related toxicity in mice (ill effects, body weight); conditions: mice implanted with MCF7-L cells, n = 5/group
# Method: as §1
# breast cancer cells [5] = conditions: administered with insulin; cited from earlier work
# breast cancer cells [6] = conditions: cells incubated with insulin; cited from earlier work
# [7] = humans, cited from earlier work
# LNCAP cells [8] = test: LNCAP proliferation in vitro (Example 5, cell counting kit-8)
# Method: LNCAP cells were plated in a 96-well plate at 3,000 cells per well in RPMI medium supplemented with 10% fetal bovine serum (FBS). After incubation overnight, the medium in the wells was replaced with 100 μl per well of RPMI supplemented with 0.1% FBS. […] After incubation for 4 days, cell proliferation was assayed with the cell counting kit-8 (Dojindo Molecular Technologies, Gaithersburg, Md.).
# [9] = low dose 15 μmoles/kg methotrexate
smiles,measurement,setting,value
Cc1c2ccncc2c(C)c2c1[nH]c1ccccc12 [elipticine],stimulation of uptake,[1],2 fold
CN(Cc1cnc2nc(N)nc(N)c2n1)c1ccc(C(=O)N[C@@H](CCC(=O)O)C(=O)O)cc1 [methotrexate],inhibition of FSAII proliferation,[2],inhibited FSAII proliferation
same,effect on FSAII tumor growth,FSAII tumors; high dose 60 μmoles/kg methotrexate,Neither the high or low dose of methotrexate had any apparent effect
same,effect on FSAII tumor growth,FSAII tumors; [9],Neither the high or low dose of methotrexate had any apparent effect
same,effect on LNCAP tumor growth,LNCAP tumors; high dose 40 μmoles/kg methotrexate,appeared to have no effect
same,effect on LNCAP tumor growth,LNCAP tumors; [9],appeared to have no effect
same,inhibition of proliferation at highest tested concentration,LNCAP cells [3]; 2000 nM,significantly greater inhibition than IGF-MTX
same,inhibition of proliferation compared to untreated control cells,LNCAP cells [3]; LNCaP,inhibited proliferation of LNCaP cells
same,IC50,"LNCAP cells [3]; free MTX, LNCaP, RPMI + 10% FCS, 48 hours with drug, IGF-MTX as concentration of MTX groups",~400 nM
same,MCF7 tumor growth,MCF7 tumors,tumors continued to grow
same,MCF7-L tumor growth inhibition,MCF7-L tumors,inhibited about equally
same,"Average weight of mice, Day 4",[4],19.5 g
same,"Average weight of mice, Day 20",[4],20.8 g
same,"Average weight of mice, Day 0",[4]; measured immediately before treatment,19.2 g
same,factor of lower methotrexate concentration for the same percent cell killing than methotrexate alone,breast cancer cells [5],10^4
same,stimulation of uptake,breast cancer cells [6],50%
same,maximum safe dosage,[7]; cumulative per 3 weeks,about 500 micromoles per meter squared per 3 weeks
same,minimum effective dosage,[7]; lowest dosage usually used,about 130 micromoles per meter squared per 3 weeks
same,Cell number (relative units),"LNCAP cells [8]; Minimal med. (0.1% FBS), MTX conc. 2 nM",.653 ± .046 relative units
same,Cell number (relative units),"LNCAP cells [8]; Minimal med. (0.1% FBS), MTX conc. 8 nM",.737 ± .043 relative units
same,Cell number (relative units),"LNCAP cells [8]; Minimal med. (0.1% FBS), MTX conc. 32 nM",.994 ± .226 relative units
same,Cell number (relative units),"LNCAP cells [8]; Minimal med. (0.1% FBS), MTX conc. 125 nM",.835 ± .048 relative units
same,Cell number (relative units),"LNCAP cells [8]; Minimal med. (0.1% FBS), MTX conc. 500 nM",.706 ± .051 relative units
same,Cell number (relative units),"LNCAP cells [8]; Minimal med. (0.1% FBS), MTX conc. 2000 nM",0.418 ± .026 relative units
same,Cell number (relative units),"LNCAP cells [8]; Rich medium (10% FBS), MTX conc. 2 nM",0.724 ± .015 relative units
same,Cell number (relative units),"LNCAP cells [8]; Rich medium (10% FBS), MTX conc. 8 nM",0.596 ± .071 relative units
same,Cell number (relative units),"LNCAP cells [8]; Rich medium (10% FBS), MTX conc. 32 nM",1.017 ± .033 relative units
same,Cell number (relative units),"LNCAP cells [8]; Rich medium (10% FBS), MTX conc. 125 nM",0.223 ± .012 relative units
same,Cell number (relative units),"LNCAP cells [8]; Rich medium (10% FBS), MTX conc. 500 nM",0.163 ± .009 relative units
same,minimal inhibitory concentration,LNCAP cells [8]; minimal medium containing 0.1% serum,about 2000 nM
same,minimal inhibitory concentration,LNCAP cells [8]; rich medium containing 10% serum,about 125 nM
